In patent US20240043427A1 (Gilead Sciences, Inc., priority 2020, published 2024):

target: CD73 (Homo sapiens (Human), UniProt P21589); assay type: biochemical; conditions: 1 mM NaH2PO4 in enzyme buffer, CD73 0.3 nM, AMP 15 uM
Sequence (P21589 27-574): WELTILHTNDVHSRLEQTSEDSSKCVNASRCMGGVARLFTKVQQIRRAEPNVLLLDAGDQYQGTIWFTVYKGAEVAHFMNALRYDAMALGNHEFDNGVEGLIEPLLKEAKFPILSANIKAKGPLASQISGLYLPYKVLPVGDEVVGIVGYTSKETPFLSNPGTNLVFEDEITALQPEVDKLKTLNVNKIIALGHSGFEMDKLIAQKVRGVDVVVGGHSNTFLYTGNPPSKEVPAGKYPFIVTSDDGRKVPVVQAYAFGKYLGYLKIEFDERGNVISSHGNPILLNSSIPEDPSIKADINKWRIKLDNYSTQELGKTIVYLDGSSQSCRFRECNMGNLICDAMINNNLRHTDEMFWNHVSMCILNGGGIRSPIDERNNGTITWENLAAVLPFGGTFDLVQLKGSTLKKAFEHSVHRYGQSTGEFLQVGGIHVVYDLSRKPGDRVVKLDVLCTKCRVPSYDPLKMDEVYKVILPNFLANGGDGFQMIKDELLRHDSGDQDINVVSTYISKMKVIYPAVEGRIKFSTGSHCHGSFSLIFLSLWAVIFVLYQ
Protocol: Compound serial dilutions were pre-spotted into Thermo Nunc assay plate. 50 uL CD73 enzyme buffer (CD73 purchased from R&D system=0.6 nM, 25 mM Tris, pH 7.4, 5 mM MgCl2, 1 mM NaH2PO4) was added into the assay plate and incubate for 15 mins. […] After incubation for 60 mins, the supernatant (20 uL) was transferred into 384-well NUNC plate pre-filled with 60 uL Quench buffer (80% organic and 20% water+0.1% FA) with internal standard. The plate was spun down at 4500 rpm for 20 mins, then 20 uL of supernatant was transferred to another Nunc plate prefilled with 80 uL of water. The samples were analyzed using Rapid fire.

**Q.** With `N#Cc1ccc([C@H]2C[C@@H]2c2cc(-c3c[nH]c(=O)[nH]c3=O)nn3ccnc23)c(F)c1` (racemic) [Example 407, 4-((1S,2S)-2-(6-(2,4-dioxo-1,2,3,4-tetrahydropyrimidin-5-yl)imidazo[1,2-b]pyridazin-8-yl)cyclopropyl)-3-fluorobenzonitrile] as the compound, how does the IC50 read?
**A.** 1.9 nM

**Q.** With `N#Cc1cccc([C@H]2C[C@@H]2c2cc(-c3c[nH]c(=O)[nH]c3=O)nn3ccnc23)c1F` (racemic) [Example 408, 3-((1S,2S)-2-(6-(2,4-dioxo-1,2,3,4-tetrahydropyrimidin-5-yl)imidazo[1,2-b]pyridazin-8-yl)cyclopropyl)-2-fluorobenzonitrile] as the compound, how does the IC50 read?
**A.** 2.35 nM

**Q.** `N#Cc1ccc([C@H]2C[C@@H]2c2cc(-c3c[nH]c(=O)[nH]c3=O)nn3ccnc23)cc1C(F)(F)F` (racemic) [Example 411, 4-((1S,2S)-2-(6-(2,4-dioxo-1,2,3,4-tetrahydropyrimidin-5-yl)imidazo[1,2-b]pyridazin-8-yl)cyclopropyl)-2-(trifluoromethyl)benzonitrile] was tested. Which IC50 did it give?
**A.** 6.11 nM

**Q.** How did the IC50 turn out when `N#Cc1cc([C@H]2C[C@@H]2c2cc(-c3c[nH]c(=O)[nH]c3=O)nn3ccnc23)ccc1C(F)(F)F` (racemic) [Example 412, 5-((1S,2S)-2-(6-(2,4-dioxo-1,2,3,4-tetrahydropyrimidin-5-yl)imidazo[1,2-b]pyridazin-8-yl)cyclopropyl)-2-(trifluoromethyl)benzonitrile] was run?
**A.** 6 nM

**Q.** For `N#Cc1ccc([C@H]2C[C@@H]2c2cc(-c3c[nH]c(=O)[nH]c3=O)nn3ccnc23)cc1OC(F)(F)F` (racemic) [Example 413, 4-((1S,2S)-2-(6-(2,4-dioxo-1,2,3,4-tetrahydropyrimidin-5-yl)imidazo[1,2-b]pyridazin-8-yl)cyclopropyl)-2-(trifluoromethoxy)benzonitrile], which IC50 is on record?
**A.** 3.01 nM

**Q.** How did the IC50 turn out when `N#Cc1cc([C@H]2C[C@@H]2c2cc(-c3c[nH]c(=O)[nH]c3=O)nn3ccnc23)ccc1OC(F)(F)F` (racemic) [Example 414, 5-((1S,2S)-2-(6-(2,4-dioxo-1,2,3,4-tetrahydropyrimidin-5-yl)imidazo[1,2-b]pyridazin-8-yl)cyclopropyl)-2-(trifluoromethoxy)benzonitrile] was run?
**A.** 2.84 nM

**Q.** For `O=c1[nH]cc(-c2cc(N3CC(Oc4ccc(C(F)(F)F)cn4)C(F)(F)C3)c3ncnn3n2)c(=O)[nH]1` (racemic) [Example 432, 5-(8-(3,3-difluoro-4-((5-(trifluoromethyl)pyridin-2-yl)oxy)pyrrolidin-1-yl)-[1,2,4]triazolo[1,5-b]pyridazin-6-yl)pyrimidine-2,4(1H,3H)-dione], which IC50 is on record?
**A.** 0.15 nM

**Q.** How did the IC50 turn out when `O=c1[nH]cc(-c2cc(N3CCC(CC(F)(F)F)C3)c3nccn3n2)c(=O)[nH]1` (racemic) [Example 452, 5-(8-(3-(2,2,2-trifluoroethyl)pyrrolidin-1-yl)imidazo[1,2-b]pyridazin-6-yl)pyrimidine-2,4(1H,3H)-dione] was run?
**A.** 95.3 nM

**Q.** With `O=c1[nH]cc(-c2cc(N3CCC(CC(F)F)C3)c3nccn3n2)c(=O)[nH]1` (racemic) [Example 453, 5-(8-(3-(2,2-difluoroethyl)pyrrolidin-1-yl)imidazo[1,2-b]pyridazin-6-yl)pyrimidine-2,4(1H,3H)-dione] as the compound, how does the IC50 read?
**A.** 76 nM

**Q.** Which IC50 does the source give for `O=c1[nH]cc(-c2cc([C@H]3C[C@@H]3c3nc4ccccc4[nH]3)c3nccn3n2)c(=O)[nH]1` (racemic) [Example 461, 5-(8-((1S,2S)-2-(1H-benzo[d]imidazol-2-yl)cyclopropyl)imidazo[1,2-b]pyridazin-6-yl)pyrimidine-2,4(1H,3H)-dione] here?
**A.** 2.56 nM

**Q.** With `O=C(Nc1ccccc1)[C@H]1C[C@@H]1c1cc(-c2c[nH]c(=O)[nH]c2=O)nn2ccnc12` (racemic) [Example 462, (1S,2S)-2-(6-(2,4-dioxo-1,2,3,4-tetrahydropyrimidin-5-yl)imidazo[1,2-b]pyridazin-8-yl)-N-phenylcyclopropane-1-carboxamide] as the compound, how does the IC50 read?
**A.** 9.39 nM
